Experimental data from US20250090562A1, “METHODS, COMPOSITIONS AND USES RELATED TO THE TREATMENT AND PREVENTION OF LEIGH’S SYNDROME” (Stealth BioTherapeutics Inc., priority 2023, published 2025).
Entries after “also recorded” stand apart in the source; their conditions may differ.

Legend:
[1] = tested on: 15-lipoxygenase (15-LO); test: 15(S)-HETE ELISA following RSL3 treatment, Leigh fibroblasts; assay type: cell-based, human; conditions: 700 nM RSL3, 1 μM compound, 24 h
Description: Samples for the 15(S)-HETE ELISA were generated by the RSL3 cytoprotection assay described above. Healthy or Leigh fibroblasts were resuspended in assay medium, seeded at 200,000 cells per well in a clear, tissue culture-treated, 24-well plate. Cells were incubated at 37° C. for 24 hours. Supernatant was aspirated from each well following the incubation.
Fibroblasts from both a healthy individual and a patient diagnosed with Leigh syndrome were examined (but not all compounds were examined in each cell type). Activation of ferroptosis has been implicated as a driver of epilepsy, which is commonly associated with Leigh syndrome. […] Kahn-Kirby et al. PLOS One. […] As a key regulator of ferroptosis, 15-LO serves as a rational therapeutic target in Leigh syndrome.

[2] = tested on: Healthy (GM08402) fibroblasts; test: Erastin cytoprotection assay, healthy fibroblasts; assay type: cell-based, human; conditions: 2 μM erastin, 250 μM FAC, 50 μM AA, 10-1000 nM compound, 24 h
Description: (§1) Briefly, Healthy (GM08402) or Leigh (GM03672) fibroblasts were resuspended in assay medium, seeded at 10,000 cells per well in a clear, tissue cultured-treated, 96-well plate, and incubated at 37° C. overnight. Following the incubation, supernatant was manually aspirated from wells, taking care not to disrupt cells. Fibroblasts were co-treated in a final volume of 100 μL with 2 μM erastin (Millipore Corp., Cat #), 250 μM ferric ammonium citrate (FAC), 50 μM ascorbic acid (AA), and a titration of one of each of Compounds 1 to 4 or Vatiquinone ranging from 10 to 1000 nM. Following another 24-hour incubation at 37° C., cell viability was measured using the CellTiter-Glo Luminescent Cell Viability Kit (ProMega) per Manufacturer's instructions. Luminescence units were quantified by GEN5 software on a BioTek SYNERGY neo2 plate reader (LUM filter).
(§2) Briefly, erastin, like RSL3, is known to induce ferroptosis. […] Erastin was incubated with cell fibroblasts for 24 hours to induce ferroptosis. Cells were co-treated with each of Compounds 1 to 4, or Vatiquinone as the test articles. Test articles were administered at a range of concentrations to derive a curve. Cell viability was determined using a commercially available kit that measures ATP production. […] An increase in cell viability as determined by the assay is considered to be protective against ferroptosis.

[3] = tested on: Leigh (GM03672) fibroblasts; test: Erastin cytoprotection assay, Leigh fibroblasts; assay type: cell-based, human; conditions: 2 μM erastin, 250 μM FAC, 50 μM AA, 10-1000 nM compound, 24 h
Description: as §1, §2

[4] = tested on: Leigh syndrome (GM03672) fibroblasts; test: RSL3 cytoprotection assay, Leigh fibroblasts; assay type: cell-based, human; conditions: for relative anti-ferroptosis properties (comparison between test articles): 375 nM RSL3, 10-1000 nM compound, 4 h
Description: (§3) Patient fibroblasts were acquired from Coriell Institute for Medical Research (Camden, NJ, USA). GM03672 is an untransformed fibroblast cell line from a Leigh syndrome patient carrying an unknown mutation. GM08402 is an untransformed fibroblast from an apparently healthy individual. Cells were cultured at 37° C. at 5% CO2 in Eagle's Minimum Essential Medium (MEM, Corning), which was supplemented with Earle's salts and non-essential amino acids, 15% qualified fetal bovine serum, and 1% penicillin/streptomycin ([…]) to yield “Complete MEM.”
(§4) To initiate the RSL3 cytoprotection experiment, Healthy (GM08402) and Leigh syndrome (GM03672) fibroblasts were resuspended in Complete MEM. Cells were seeded at 10,000 cells per well in a clear, tissue cultured-treated, 96-well plate and incubated at 37° C. overnight. Following the incubation, supernatant was manually aspirated, taking care not to disrupt cells. […]. Luminescence units were quantified by GEN5 software on a BioTek SYNERGY neo2 plate reader (LUM filter).
(§5) RSL3 is an inhibitor of the enzyme glutathione peroxidase 4 (GPX4), which decreases lipid peroxides. RSL3 inhibition of GPX4 induces ferroptosis through iron-dependent accumulation of lipid ROS. In this assay, Healthy or Leigh fibroblasts were treated for 4 hours with RSL3 to induce ferroptosis or left untreated. Endogenous ATP levels were measured as an indicator of cellular viability using a commercially available kit (CellTiter-Glo® 2.0 Cell Viability Assay (Promega)).
(§6) […]. […] Briefly, ferroptosis was induced with 1 μM RSL3 in healthy fibroblast cells and 375 nM RSL3 in fibroblasts from a patient with Leigh syndrome.
(§7) A preliminary experiment was performed to determine the effect of RSL3 injury on the fibroblasts of a healthy individual (cell line: GM08402) and the fibroblasts of a patient diagnosed with Leigh syndrome (cell line: GM03672).

[5] = tested on: Healthy (GM08402) fibroblasts; test: RSL3 cytoprotection assay, healthy fibroblasts; assay type: cell-based, human; conditions: for relative anti-ferroptosis properties (comparison between test articles): 1 μM RSL3, 10-1000 nM compound, 4 h
Description: as §3, §4, §5, §6, §7

[6] = tested on: rotenone-inhibited Complex I; test: Complex I-bypass assay ((CI)-bypass assay), high-resolution respirometry O2 consumption; assay type: cell-based, human; conditions: Leigh (GM03672) fibroblasts, 0.5 μM rotenone; for Complex I by-pass activity (restoration of oxygen consumption rate): titrations 125 nM to 8 μM
Description: All high-resolution respirometry experiments were conducted using the Oroboros O2k-Fluorespirometer (Oroboros, Innsbruck, Austria). The Oroboros O2k-Fluorespirometer was calibrated daily using the air calibration protocol on DatLab 7.4 (Oroboros, Innsbruck, Austria). Prior to each experiment requiring the fluorescence module, the AmpR calibration protocol from DatLab 7.4 was used to calibrate the fluorescence signal. Initial data analysis, including setting of marks, was performed using DatLab 7.4.
Complex I-bypass activity was assessed using HRR to measure O2 consumption. Briefly, Leigh (GM03672) fibroblasts were harvested with trypsin, pelleted at 300×g centrifugation, and resuspended in prewarmed, complete MEM. Cells were added to each chamber via buffer replacement at a concentration of 1-2 million per mL. The chambers were closed to initiate measurement of O2 consumption. The slope negative signal, which is a derivative of O2 consumption, was allowed to stabilize over the course of several minutes. Using a Hamilton syringe to allow for continuous measurement of O2 consumption, glutamate (10 mM final concentration) and malate (0.1 mM final concentration) were added to the closed chamber through the central capillary of the stopper. The slope negative signal was stabilized for several minutes, and rotenone was added at a final concentration of 0.5 μM. One of Compounds 1 to 4 or Vatiquinone was added at increasing concentrations, allowing for several minutes of stabilization of the slope negative signal between titrations. Marks were set at signal plateaus in between titrations. Values were exported and analyzed using GraphPad Prism 9. […] Responsiveness of cells was confirmed with idebenone.
Statistical analysis was performed using GraphPad Prism 9. Complex I-bypass data were fit using nonlinear sigmoidal 4P fit. RET Assay data were analyzed by 2-way ANOVA using a p-value of 0.05.
The Complex 1-bypass assay ((CI)-bypass Assay) evaluates the capacity of compounds to donate electrons into the electron transport chain (ETC) when Complex I is impaired or otherwise deficient. Normally, electrons feed into the ETC through Complex I. In instances where Complex I is impaired, electrons must enter the ETC downstream of Complex I for oxidative phosphorylation (OXPHOS) to occur. Complex I is composed of 46 subunits, encoded by mitochondrial and nuclear genes. Due to its large size, Complex I mutations are a common cause of ETC dysfunction in mitochondrial diseases. Indeed, mutations in the genes that encode subunits for Complex I are important causes of Leigh and Leigh-like syndrome.
Using this assay, the ability of Compounds 1 to 4 and Vatiquinone to bypass rotenone-inhibited Complex I was determined. Rotenone is a widely used Complex I inhibitor and blocks the transfer of electrons from the iron-sulfur complexes on Complex I to ubiquinone. Thus, when rotenone is introduced to cells underdoing routine respiration, a decrease in oxygen consumption is observed, which is indicative of disrupted OXPHOS. The ability of Compounds 1 to 4 and Vatiquinone to “bypass” Complex I and restore OXPHOS is measured by an increase in oxygen consumption rate following addition of the compound to the chamber.
In executing this assay, in each instance, fibroblasts are added to each chamber of the Oroboros Oxygraph-2K (the “O2k”). The O2k generates two traces: 1) total oxygen consumption over time, 2) the rate of oxygen consumption over time (slope negative). Baseline respiration is established for several minutes by allowing the slope negative to stabilize. Rotenone is introduced to each chamber at a final concentration of 0.5 μM. The addition of rotenone is expected to cause a marked reduction of OXPHOS as measured by a decreased rate of oxygen consumption. Then the test article (i.e., in this case one of Compounds 1 to 4 or Vatiquinone) is added to the chamber. […]

[7] = patients with pontocerebellar hypoplasia type 6; cited from earlier work
[8] = tested on: Leigh fibroblasts (GM03672); test: Mitochondrial membrane potential (TMRM flow cytometry) in RSL3-treated Leigh fibroblasts; assay type: cell-based, human; conditions: 1 μM RSL3 alone, 4 h
Description: Leigh fibroblasts (GM03672) were seeded in a 24-well, tissue culture-treated plate in complete MEM (MEM+15% FBS+1% penicillin/streptomycin) at a density of 1×10^5 cells per 500 μL and incubated overnight at 37° C. at 5% CO2. Cells were treated for 4 hours at 37° C. with either 1 μM RSL3, 1 μM RSL3 with 1 μM Compound 3 or media for untreated cells. Following the incubation, supernatant was removed and cells were treated with 0.25% trypsin for 5 min at 37° C. Trypsin was neutralized with an equal part MEM. Cells were dislodged with gentle pipetting and pelleted at 300×g for 5 minutes. Pellets were resuspended in 500 μL Fluobrite DMEM and cells were transferred to a 96-well, v-bottom plate. Cells were stained with 20 nM MitoTracker Green and 100 nM tetramethylrhodamine methyl ester (TMRM) Samples were incubated for 25 minutes at 37° C. Each well was mixed immediately prior to analysis to resuspend settled cells. Fluorescence intensity was measured on the BD Accuri C6 Plus Flow Cytometer. A minimum of 10,000 events per sample was collected. Data analysis was performed using FloJo vs. 10. Gating was performed by establishing an initial forward scatter vs. side scatter gate. MitoTracker Green positive, TMRM positive cells were identified through subsequent gating. Median fluorescence intensity (MFI) of TMRM fluorescence was determined. Using GraphPad Prism 10, statistical significance between groups was determined by One-way ANOVA. A p-value of less than 0.05 was considered significant. Results are presented graphically in FIG. 20.

COC1=C(OC)C(=O)C(CCCCCCCCCC(F)(F)F)=C(C)C1=O [Compound 1]
relative 15-LO inhibition (comparison between test articles) [1]: superior to Compounds 2, 3 and 4
relative protective effect against erastin induced ferroptosis (cell viability, ATP) [2]: about equally protective
relative protective effect against erastin induced ferroptosis (cell viability, ATP) [3]: about equally protective
relative anti-ferroptosis properties (comparison between test articles) [4]: roughly equivalent in their anti-ferroptosis properties
relative anti-ferroptosis properties (comparison between test articles) [5]: roughly equivalent in their anti-ferroptosis properties
EC50 ([6]; oxygen consumption rate, read-out: EC50 value, Complex I by-pass activity): ~13.7 µM
Complex I by-pass activity (restoration of oxygen consumption rate) [6]: restored oxygen consumption rate in a dose-dependent manner

CC(C)=CCC/C(C)=C/CC/C(C)=C/CC[C@@](C)(O)CCC1=C(C)C(=O)C(C)=C(C)C1=O [Vatiquinone, reference compound]
relative protective effect against erastin induced ferroptosis (cell viability, ATP) [2]: about equally protective
relative protective effect against erastin induced ferroptosis (cell viability, ATP) [3]: superior in its protective effect as compared with Compounds 1 and 4
relative anti-ferroptosis properties (comparison between test articles) [4]: roughly equivalent in their anti-ferroptosis properties
effect on seizures [7]: reduce the incidence of seizures; also recorded: decrease seizure frequency and morbidity
relative anti-ferroptosis properties (comparison between test articles) [5]: roughly equivalent in their anti-ferroptosis properties
Complex I by-pass activity (restoration of oxygen consumption rate) [6]: no CI-bypass activity; also recorded: inactive

COC(=O)c1ccc([C@H]2c3[nH]c4ccccc4c3C[C@H](C(=O)OC)N2C(=O)CCl)cc1 [RSL3, (1S,3R)-Methyl 2-(2-chloroacetyl)-2,3,4,9-tetrahydro-1-[4-(methoxycarbonyl)phenyl]-1H-pyrido[3,4-b]indole-3-carboxylate, reference compound]
mitochondrial membrane potential (TMRM MFI) [8]: significant reduction in mitochondrial membrane potential
RSL3 concentration sufficient for 25-30% killing of cells ([4]; Leigh fibroblasts GM03672, 4 h): 700 nM
RSL3 concentration sufficient for 25-30% killing of cells ([5]; healthy fibroblasts GM08402, 4 h): 1 µM
